Source: the NIST ThermoML archive (doi:10.1021/je5001457)
Numbers after ± are expanded uncertainties.

Settings: for kinematic viscosity: Liquid

FCC(F)(F)F [1,1,1,2-tetrafluoroethane]
surface light scattering
Settings | kinematic viscosity [m2/s] | surface tension liquid-gas [mN/m]
302.99 K | 1.55e-07 ± 6.2e-09 | 7.45 ± 0.23
312.86 K | 1.41e-07 ± 5.6e-09 | 6.19 ± 0.19
322.92 K | 1.28e-07 ± 5.1e-09 | 4.95 ± 0.15
332.92 K | 1.17e-07 ± 4.7e-09 | 3.79 ± 0.12
342.9 K | 1.07e-07 ± 4.3e-09 | 2.68 ± 0.08
352.89 K | 9.79e-08 ± 3.9e-09 | 1.65 ± 0.05
363.27 K | 8.56e-08 ± 3.4e-09 | 0.73 ± 0.03
368.26 K | 7.9e-08 ± 3.2e-09 | 0.34 ± 0.02

C=C(F)C(F)(F)F [2,3,3,3-tetrafluoro-1-propene]
light scattering
Settings | kinematic viscosity [m2/s] | surface tension liquid-gas [mN/m]
293.15 K | 1.44e-07 ± 5.8e-09 | 6.82 ± 0.21
303.09 K | 1.32e-07 ± 5.3e-09 | 5.71 ± 0.17
313.2 K | 1.22e-07 ± 4.9e-09 | 4.6 ± 0.14
323.19 K | 1.13e-07 ± 4.5e-09 | 3.55 ± 0.11
333.14 K | 1.02e-07 ± 4.1e-09 | 2.55 ± 0.08
343.11 K | 8.99e-08 ± 3.6e-09 | 1.64 ± 0.05
353.08 K | 8.2e-08 ± 3.3e-09 | 0.81 ± 0.03
358.05 K | 7.7e-08 ± 3.1e-09 | 0.46 ± 0.02
363.05 K | 7e-08 ± 2.8e-09 | 0.15 ± 0.01
365.05 K | 6.24e-08 ± 2.6e-09 | –

F/C=C/C(F)(F)F [trans-1,3,3,3-tetrafluoropropene]
surface light scattering
Settings | kinematic viscosity [m2/s] | surface tension liquid-gas [mN/m]
295.23 K | 1.78e-07 ± 7.1e-09 | 8.88 ± 0.27
303.19 K | 1.61e-07 ± 6.4e-09 | 7.91 ± 0.24
313.21 K | 1.43e-07 ± 5.7e-09 | 6.66 ± 0.2
323.19 K | 1.32e-07 ± 5.3e-09 | 5.48 ± 0.17
333 K | 1.19e-07 ± 4.8e-09 | 4.36 ± 0.13
343.05 K | 1.13e-07 ± 4.5e-09 | 3.3 ± 0.1
353 K | 1.05e-07 ± 4.2e-09 | 2.26 ± 0.07
363.12 K | 9.24e-08 ± 3.7e-09 | 1.35 ± 0.04
373.14 K | 8.17e-08 ± 3.3e-09 | 0.54 ± 0.02
